Source: patent US7456172B2, “Succinoylamino benzodiazepines as inhibitors of Aβ protein production” (Bristol-Myers Squibb Pharma Company, priority 1998, dated 2008)
Counter-ions that a name gives are not always drawn.

Row | melting point [°C] | SMILES
1 | 244 to 255 | C=CC[C@H](C(N)=O)[C@@H](CC(C)C)C(=O)NC1N=C(c2ccccc2)c2cc(OC)ccc2N(C)C1=O (stereo partly shown)
2 | 232 to 237 | C=CC[C@H](C(N)=O)[C@@H](CC(C)C)C(=O)NC1N=C(N2CCCCCC2)c2ccccc2N(C)C1=O (stereo partly drawn) [Example 23, (2R,3S) N1-[1,3-dihydro-1-methyl-2-oxo-5-(N-homopiperidinyl)-2H-1,4-benzodiazepin-3-yl]-2-(2-methylpropyl)-3-allyl-butanediamide]
3 | 137 to 145 | C=CC[C@H](C(N)=O)[C@@H](CC(C)C)C(=O)NC1C(=O)N(C)c2ccccc2-c2ccccc21 (stereo partly drawn) [Example 47, (2R,3S) N1-[6,7-dihydro-5-methyl-6-oxo-5H-dibenz[b,d]azepin-7-yl]-2-(2-methylpropyl)-3-allyl-butanediamide]
4 | 251 to 253 | C=CC[C@H](C(N)=O)[C@@H](CC(C)C)C(=O)NC1N=C(c2cccnc2)c2ccccc2N(C)C1=O (stereo partly shown)
5 | 230 to 232 | C=CC[C@H](C(N)=O)[C@@H](CC(C)C)C(=O)NC1N=C(N(C)C)c2ccccc2N(C)C1=O (stereo partly drawn) [Example 20, (2R,3S) N1-[1,3-dihydro-1-methyl-2-oxo-5-(dimethylamino)-2H-1,4-benzodiazepin-3-yl]-2-(2-methylpropyl)-3-allyl-butanediamide]
6 | 231 to 238 | C=CC[C@H](C(N)=O)[C@@H](CC(C)C)C(=O)NC1N=C(N2CCCCC2)c2ccccc2N(C)C1=O (stereo partly drawn) [Example 22, (2R,3S) N1-[1,3-dihydro-1-methyl-2-oxo-5-(N-piperidinyl)-2H-1,4-benzodiazepin-3-yl]-2-(2-methylpropyl)-3-allyl-butanediamide]
7 | 225 to 230 | C=CC[C@H](C(N)=O)[C@@H](CC(C)C)C(=O)NC1N=C(c2cccc(OC)c2)c2ccccc2N(C)C1=O (stereo partly shown)
8 | 146 to 148 | CC(C)C[C@@H](C(=O)N[C@H]1N=C(c2ccccc2)c2ccccc2N(C)C1=O)[C@@H](CC1CC1)C(N)=O (as salt: succinate)
9 | 266.6 to 267.8 | C=CC[C@H](C(N)=O)[C@@H](CC(C)C)C(=O)NC1N=C(N(C)c2ccccc2)c2ccccc2N(C)C1=O (stereo partly drawn) [Example 21, (2R,3S) N1-[1,3-dihydro-1-methyl-2-oxo-5-(N-methyl-N-phenylamino)-2H-1,4-benzodiazepin-3-yl]-2-(2-methylpropyl)-3-allyl-butanediamide]
10 | 145 to 151 | C=CC[C@H](C(N)=O)[C@@H](CC(C)C)C(=O)NC1N=C(N2CCOCC2)c2ccccc2N(C)C1=O (stereo partly drawn) [Example 19, (2R,3S) N1-[1,3-dihydro-1-methyl-2-oxo-5-(N-morpholino)-2H-1,4-benzodiazepin-3-yl]-2-(2-methylpropyl)-3-allyl-butanediamide]
